Drawing on patent EP4043466B1, “PRC2 INHIBITORS” (Mirati Therapeutics, Inc., priority 2018, dated 2019), this text covers IC50 for 21 molecules.

Each structure is given as a SMILES string.

Test [1] deals with purified human, His-tagged PRC2 complex (Homo sapiens, UniProt O75530+Q15910). Description: Hot Spot HMT assay: inhibition of PRC2 enzymatic activity (transfer of tritiated methyl from SAM to core histone, filter binding). The test is classed as biochemical. Conditions: Inhibition of PRC2-mediated enzymatic activity; 10 nM PRC2 complex, 0.05 mg/ml core histone H3, 1 uM 3H-SAM, 1 hr at 30°C. The method, boiled down:
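Serial compound dilutions starting at 1.0 µM were pre-incubated 20 min at 30°C with 10 nM complex (His-EZH2, Flag-EED, His-SUZ12, His-AEBP2, His-RbAp48) and 0.05 mg/ml core H3. Reaction ran 1 hr at 30°C after adding 1 uM [3H]-SAM; scintillation counting followed filtration.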

Test [2] relates to PRC2-mediated histone H3 methylation. Description: Tri-Methyl Histone H3 (Lys 27) Sandwich ELISA in Pfeiffer cells: inhibition of PRC2-mediated histone H3 methylation. It counts as cell-based, human. The note with it: Homo sapiens; Inhibition of EZH2-mediated histone H3 trimethylation; Pfeiffer cells (EZH2 A677G), 96 hours incubation. The method in brief: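 Pfeiffer DLBCL cells (EZH2 A677G mutant) treated with 3-fold serial dilutions, 1µM to 0.15 nM final, for 96 hours at 37°C. Acid (0.4M HCl) histone extracts, neutralized, assayed by H3K27me3 sandwich ELISA with HRP/TMB read at 450 nm.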

Another test has as its system Karpas 422 cells. The test is described as follows: Karpas 422 cell viability, CTG (Cell Titre Glo) assay. Conditions: Homo sapiens; Inhibition of proliferation of Karpas 422 cells (EZH2 Y641N); viability measured Day 4, Day 7 or Day 11, time point of the tabulated values not stated. The test is classed as cell-based, human. The method, boiled down: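 CellTiter-Glo viability IC50s taken at Day 4, Day 7 and Day 11 of continuous compound exposure (3-fold series, 10µM top, 1.5nM lowest) in RPMI/20% FBS at 37 °C. Y641N-mutant EZH2 lymphoma line seeded at 1000 cells per well; medium and compound replaced on Day 7 for Day 11 read.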

Chain of purified human, His-tagged PRC2 complex (Q15910 whole entry): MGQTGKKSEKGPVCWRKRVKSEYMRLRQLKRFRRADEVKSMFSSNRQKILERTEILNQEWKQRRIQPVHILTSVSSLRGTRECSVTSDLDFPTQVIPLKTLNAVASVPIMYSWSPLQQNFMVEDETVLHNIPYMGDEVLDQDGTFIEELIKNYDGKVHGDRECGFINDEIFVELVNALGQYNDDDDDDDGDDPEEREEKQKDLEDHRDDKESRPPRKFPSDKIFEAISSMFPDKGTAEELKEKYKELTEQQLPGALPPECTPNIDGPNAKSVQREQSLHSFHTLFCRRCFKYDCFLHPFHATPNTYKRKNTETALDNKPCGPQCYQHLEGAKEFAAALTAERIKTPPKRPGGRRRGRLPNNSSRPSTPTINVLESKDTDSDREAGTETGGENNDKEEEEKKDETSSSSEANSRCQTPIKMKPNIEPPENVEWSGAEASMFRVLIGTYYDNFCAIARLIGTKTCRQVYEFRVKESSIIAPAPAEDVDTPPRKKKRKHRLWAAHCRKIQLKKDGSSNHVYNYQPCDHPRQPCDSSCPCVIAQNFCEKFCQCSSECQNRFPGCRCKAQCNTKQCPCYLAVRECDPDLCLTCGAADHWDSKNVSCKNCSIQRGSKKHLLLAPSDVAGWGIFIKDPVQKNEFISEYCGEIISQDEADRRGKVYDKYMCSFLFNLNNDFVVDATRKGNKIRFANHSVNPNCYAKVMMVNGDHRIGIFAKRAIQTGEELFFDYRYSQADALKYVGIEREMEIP
Chain of purified human, His-tagged PRC2 complex (O75530 whole entry): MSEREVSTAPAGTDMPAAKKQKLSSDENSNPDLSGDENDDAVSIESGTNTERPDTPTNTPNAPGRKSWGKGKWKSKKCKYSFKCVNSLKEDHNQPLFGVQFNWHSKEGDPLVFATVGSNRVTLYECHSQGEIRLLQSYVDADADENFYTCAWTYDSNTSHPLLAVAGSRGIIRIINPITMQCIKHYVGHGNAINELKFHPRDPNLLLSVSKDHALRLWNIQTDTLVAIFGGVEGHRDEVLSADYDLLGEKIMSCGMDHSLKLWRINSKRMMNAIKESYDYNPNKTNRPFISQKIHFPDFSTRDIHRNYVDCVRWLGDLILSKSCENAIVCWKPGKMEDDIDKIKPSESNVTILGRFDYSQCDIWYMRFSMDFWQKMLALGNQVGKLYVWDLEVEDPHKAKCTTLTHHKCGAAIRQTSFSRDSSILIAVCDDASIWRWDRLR
Chain of purified human, His-tagged PRC2 complex (Q15022 whole entry partner): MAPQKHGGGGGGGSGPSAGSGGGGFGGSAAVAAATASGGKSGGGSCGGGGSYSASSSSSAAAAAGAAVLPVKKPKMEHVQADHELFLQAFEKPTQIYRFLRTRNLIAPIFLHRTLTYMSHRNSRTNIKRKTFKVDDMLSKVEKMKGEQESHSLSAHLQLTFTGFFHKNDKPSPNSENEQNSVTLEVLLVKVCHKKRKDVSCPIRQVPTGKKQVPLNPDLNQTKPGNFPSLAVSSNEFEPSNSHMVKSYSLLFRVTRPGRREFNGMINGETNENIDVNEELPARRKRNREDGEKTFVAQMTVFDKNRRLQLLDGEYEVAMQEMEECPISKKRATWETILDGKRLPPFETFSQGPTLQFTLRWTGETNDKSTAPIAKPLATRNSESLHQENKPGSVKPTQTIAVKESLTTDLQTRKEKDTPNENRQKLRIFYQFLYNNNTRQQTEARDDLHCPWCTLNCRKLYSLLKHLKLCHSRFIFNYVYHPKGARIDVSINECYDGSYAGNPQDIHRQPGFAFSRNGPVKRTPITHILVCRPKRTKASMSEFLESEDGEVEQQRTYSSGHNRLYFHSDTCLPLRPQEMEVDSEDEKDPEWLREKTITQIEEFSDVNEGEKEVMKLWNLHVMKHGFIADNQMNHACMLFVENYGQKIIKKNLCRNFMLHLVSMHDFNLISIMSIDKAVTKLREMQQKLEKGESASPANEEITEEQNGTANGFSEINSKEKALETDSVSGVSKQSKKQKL
Chain of purified human, His-tagged PRC2 complex (Q6ZN18 whole entry partner): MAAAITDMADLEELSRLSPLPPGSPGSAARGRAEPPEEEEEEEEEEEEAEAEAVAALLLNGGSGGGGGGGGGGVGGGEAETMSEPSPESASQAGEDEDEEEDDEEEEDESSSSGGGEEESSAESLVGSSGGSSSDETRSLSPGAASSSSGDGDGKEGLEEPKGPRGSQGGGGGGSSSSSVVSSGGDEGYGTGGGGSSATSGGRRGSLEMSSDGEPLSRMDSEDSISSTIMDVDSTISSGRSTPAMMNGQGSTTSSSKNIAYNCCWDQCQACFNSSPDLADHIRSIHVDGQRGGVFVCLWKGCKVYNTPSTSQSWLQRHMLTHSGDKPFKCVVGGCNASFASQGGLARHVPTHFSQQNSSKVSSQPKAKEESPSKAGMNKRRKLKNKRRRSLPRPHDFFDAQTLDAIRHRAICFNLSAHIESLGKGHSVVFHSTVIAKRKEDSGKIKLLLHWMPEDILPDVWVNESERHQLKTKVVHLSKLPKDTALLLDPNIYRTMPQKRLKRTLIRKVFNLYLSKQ
Chain of purified human, His-tagged PRC2 complex (Q09028 whole entry partner): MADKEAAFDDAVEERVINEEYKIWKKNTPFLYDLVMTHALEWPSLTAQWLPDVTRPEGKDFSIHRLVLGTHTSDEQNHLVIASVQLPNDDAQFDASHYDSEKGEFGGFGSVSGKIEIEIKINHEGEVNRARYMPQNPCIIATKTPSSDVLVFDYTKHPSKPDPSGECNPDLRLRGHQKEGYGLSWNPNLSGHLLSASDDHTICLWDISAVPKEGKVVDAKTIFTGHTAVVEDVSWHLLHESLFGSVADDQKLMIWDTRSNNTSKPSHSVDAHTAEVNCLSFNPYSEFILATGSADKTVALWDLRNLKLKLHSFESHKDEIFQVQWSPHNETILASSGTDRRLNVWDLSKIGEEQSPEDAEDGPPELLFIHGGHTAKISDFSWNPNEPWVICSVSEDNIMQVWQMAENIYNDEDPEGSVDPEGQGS

Consider `CNCc1ccc(-c2cnc(NCc3c(F)ccc4c3CCO4)n3cc(C#N)nc23)cc1F` [Example 197, 5-(((5-fluoro-2,3-dihydrobenzofuran-4-yl)methyl)amino)-8-(3-fluoro-4-((methylamino)methyl)phenyl)imidazo[1,2-c]pyrimidine-2-carbonitrile], for which the values for the IC50 (in test [1]; in test [2]; in the test with Karpas 422 cells) were < 100 nM, 100 to 500 nM and ≤ 250 nM, respectively.
In the case of `CN(C)Cc1ccc(-c2cnc(NCc3c(F)ccc4c3CCO4)n3cc(C#N)nc23)c(C#N)c1` [Example 198, 8-(2-cyano-4-((dimethylamino)methyl)phenyl)-5-(((5-fluoro-2,3-dihydrobenzofuran-4-yl)methyl)amino)imidazo[1,2-c]pyrimidine-2-carbonitrile], the IC50 is < 100 nM in test [1], 100 to 500 nM in test [2] and ≤ 250 nM in the test with Karpas 422 cells.
For `CC(c1ccc(-c2cnc(NCc3c(F)ccc4c3CCO4)n3cc(C#N)nc23)cc1)N(C)C` (stereo not drawn) [Example 199, 8-(4-(1-(dimethylamino)ethyl)phenyl)-5-(((5-fluoro-2,3-dihydrobenzofuran-4-yl)methyl)amino)imidazo[1,2-c]pyrimidine-2-carbonitrile], the values for the half-inhibitory concentration (IC50) (in test [1]; in test [2]; in the test with Karpas 422 cells) were < 100 nM, 100 to 500 nM and ≤ 250 nM, respectively.
Take `Cc1cc(-c2cnc(NCc3c(F)ccc4c3CCO4)n3cc(C#N)nc23)ccc1CN(C)C` [Example 200, 8-(4-((dimethylamino)methyl)-3-methylphenyl)-5-(((5-fluoro-2,3-dihydrobenzofuran-4-yl)methyl)amino)imidazo[1,2-c]pyrimidine-2-carbonitrile]: the IC50 in test [1] is 100 to 500 nM; in test [2], 100 to 500 nM; in the test with Karpas 422 cells, ≤ 250 nM.
Consider `CN(C)Cc1ccc(-c2cnc(NCc3c(F)ccc4c3CCO4)n3cc(C#N)nc23)cc1C#N` [Example 201, 8-(3-cyano-4-((dimethylamino)methyl)phenyl)-5-(((5-fluoro-2,3-dihydrobenzofuran-4-yl)methyl)amino)imidazo[1,2-c]pyrimidine-2-carbonitrile], for which the IC50 is < 100 nM in test [1], 100 to 500 nM in test [2] and ≤ 250 nM in the test with Karpas 422 cells.
Turning to `[2H]C([2H])([2H])N(Cc1ccc(-c2cnc(NCc3c(F)ccc4c3CCO4)n3cc(C#N)nc23)c(C)c1)C([2H])([2H])[2H]` [Example 202, 8-(4-((bis(methyl-d3)amino)methyl)-2-methylphenyl)-5-(((5-fluoro-2,3-dlhydrobenzofuran-4-yl)methyl)amino)imidazo[1,2-c]pyrimidine-2-carbonitrile], the IC50 in test [1] was < 100 nM; in test [2] it was ≤ 100 nM; in the test on Karpas 422 cells, ≤ 250 nM.
Taken in the same sequence, the figures for `N#Cc1cn2c(NCc3c(F)ccc4c3CCO4)ncc(-c3ccc4c(c3)CCNC4)c2n1` [Example 203, 5-(((5-fluoro-2,3-dihydrobenzofuran-4-yl)methyl)amino)-8-(1,2,3,4-tetrahydroisoquinolin-6-yl)imidazo[1,2-c]pyrimidine-2-carbonitrile] were 100 to 500 nM, 100 to 500 nM and 250 to 500 nM.
Consider `N#Cc1cn2c(NCc3c(F)ccc4c3CCO4)ncc(-c3ccc(C4CCCN4)cc3)c2n1` (stereo not drawn) [Example 204, 5-(((5-fluoro-2,3-dihydrobenzofuran-4-yl)methyl)amino)-8-(4-(pyrrolidin-2-yl)phenyl)imidazo[1,2-c]pyrimidine-2-carbonitrile], for which the IC50 in test [1] is 100 to 500 nM; in test [2], ≤ 100 nM; in the test on Karpas 422 cells it was ≤ 250 nM.
As for `N#Cc1cn2c(NCc3c(F)ccc4c3CCO4)ncc(-c3ccc4c(c3)CNC4)c2n1` [Example 205, 5-(((5-fluoro-2,3-dihydrobenzofuran-4-yl)methyl)amino)-8-(isoindolin-5-yl)imidazo[1,2-c]pyrimidine-2-carbonitrile], the IC50 in test [1] is 100 to 500 nM; in test [2], ≤ 100 nM; in the test with Karpas 422 cells, ≤ 250 nM.
Taken in the same sequence, the figures for `COCCOc1ccc(-c2cnc(NCc3c(F)ccc4c3CCO4)n3cc(C#N)nc23)c(C)c1` [Example 206, 5-(((5-fluoro-2,3-dihydrobenzofuran-4-yl)methyl)amino)-8-(4-(2-methoxyethoxy)-2-methylphenyl)imidazo[1,2-c]pyrimidine-2-carbonitrile] were 100 to 500 nM, 100 to 500 nM and 250 to 500 nM.
The like results for `Cc1cc(CN(C)C)ccc1-c1cnc(NCc2c(F)ccc3c2C(O)CO3)n2cc(C#N)nc12` (stereo not drawn) [Example 207, 8-(4-((dimethylamino)methyl)-2-methylphenyl)-5-(((5-fluoro-3-hydroxy-2,3-dihydrobenzofuran-4-yl)methyl)amino)imidazo[1,2-c]pyrimidine-2-carbonitrile] were, in that order, < 100 nM, ≤ 100 nM and ≤ 250 nM.
Take `CNC(=O)c1cc(-c2cnc(NCc3c(F)ccc4c3CCO4)n3cc(C#N)nc23)n(C)n1` [Example 208, 5-(2-cyano-5-(((5-fluoro-2,3-dihydrobenzofuran-4-yl)methyl)amino)imidazo[1,2-c]pyrimidin-8-yl)-N, 1-dimethyl-1H-pyrazole-3-carboxamide]: the IC50 in test [1] is < 100 nM; in test [2], 100 to 500 nM; with Karpas 422 cells, ≤ 250 nM.
With `Cn1nc(C#N)cc1-c1cnc(NCc2c(F)ccc3c2CCO3)n2cc(C#N)nc12` [Example 212, 8-(3-cyano-1-methyl-1H-pyrazol-5-yl)-5-(((5-fluoro-2,3-dihydrobenzofuran-4-yl)methyl)amino)imidazo[1,2-c]pyrimidine-2-carbonitrile], the results for the IC50 (in test [1]; in test [2]; with Karpas 422 cells) were < 100 nM, ≤ 100 nM and ≤ 250 nM, respectively.
For `N#Cc1cn2c(NCc3c(F)ccc4c3CCO4)ncc(-c3ccc(C(=O)O)nc3)c2n1` [Example 215, 5-(2-cyano-5-(((5-fluoro-2,3-dihydrobenzofuran-4-yl)methyl)amino)imidazo[1,2-c]pyrimidin-8-yl)picolinic acid], the IC50 was < 100 nM in test [1], > 500 nM in test [2] and > 500 nM with Karpas 422 cells.
Take `CN(C)CCc1cccc(-c2cnc(NCc3c(F)ccc4c3CCO4)n3cc(C#N)nc23)c1` [Example 217, 8-(3-(2-(dimethylamino)ethyl)phenyl)-5-(((5-fluoro-2,3-dihydrobenzofuran-4-yl)methyl)amino)imidazo[1,2-c]pyrimidine-2-carbonitrile]: the IC50 was < 100 nM in test [1], 100 to 500 nM in test [2] and ≤ 250 nM in the test on Karpas 422 cells.
In the case of `N#Cc1cn2c(NCc3c(F)ccc4c3CCO4)ncc(-c3cc[nH]c(=O)c3)c2n1` [Example 218, 5-(((5-fluoro-2,3-dihydrobenzofuran-4-yl)methyl)amino)-8-(2-oxo-1,2-dihydropyridin-4-yl)imidazo[1,2-c]pyrimidine-2-carbonitrile], the IC50 is < 100 nM in test [1], 100 to 500 nM in test [2] and 250 to 500 nM with Karpas 422 cells.
Take `N#Cc1cn2c(NCc3c(F)ccc4c3CCO4)ncc(-c3ccc([C@@H]4CCCN4)cc3)c2n1` [Example 219, (S)-5-(((5-fluoro-2,3-dihydrobenzofuran-4-yl)methyl)amino)-8-(4-(pyrrolidin-2-yl)phenyl)imidazo[1,2-c]pyrimidine-2-carbonitrile]: the IC50 in test [1] is < 100 nM; in test [2], 100 to 500 nM; in the test with Karpas 422 cells, ≤ 250 nM.
The like results for `N#Cc1cn2c(NCc3c(F)ccc4c3CCO4)ncc(-c3ccc([C@H]4CCCN4)cc3)c2n1` [Example 220, (R)-5-(((5-fluoro-2,3-dihydrobenzofuran-4-yl)methyl)amino)-8-(4-(pyrrolidin-2-yl)phenyl)imidazo[1,2-c]pyrimidine-2-carbonitrile] were, in that order, 100 to 500 nM, 100 to 500 nM and ≤ 250 nM.
On to `N#Cc1cn2c(NCc3c(F)ccc4c3CCO4)ncc(-c3ccc(C4CC(=O)N4)cc3)c2n1` (stereo not drawn) [Example 222, 5-(((5-fluoro-2,3-dihydrobenzofuran-4-yl)methyl)amino)-8-(4-(4-oxoazetidin-2-yl)phenyl)imidazo[1,2-c]pyrimidine-2-carbonitrile], for which the values for the IC50 (in test [1]; in test [2]; in the test with Karpas 422 cells) were < 100 nM, ≤ 100 nM and ≤ 250 nM, respectively.
As to `[2H]C1Oc2ccc(F)c(C([2H])([2H])Nc3ncc(-c4ccc(CN(C)C)cc4C)c4nc(C#N)cn34)c2C1[2H]` (stereo not drawn) [Example 223, 8-(4-((dimethylamino)methyl)-2-methylphenyl)-5-(((5-fluoro-2,3-dihydrobenzofuran-4-yl-2,3-d2)methyl-d2)amino)imidazo[1,2-c]pyrimidine-2-carbonitrile], the figures for the IC50 (in test [1]; in test [2]; with Karpas 422 cells) were < 100 nM, 100 to 500 nM and ≤ 250 nM, respectively.
Turning to `N#Cc1cn2c(NCc3c(F)ccc4c3CCO4)ncc(-c3ccc(C4CCN4)cc3)c2n1` (stereo not drawn) [Example 226, 8-(4-(azetidin-2-yl)phenyl)-5-(((5-fluoro-2,3-dihydrobenzofuran-4-yl)methyl)amino)imidazo[1,2-c]pyrimidine-2-carbonitrile], the results for the IC50 (in test [1]; in test [2]; with Karpas 422 cells) were 100 to 500 nM, 100 to 500 nM and ≤ 250 nM, respectively.
